Common to all, as to type: functional, cell-based
The subject of one assay is KB. The experiment in a line: Cytotoxicity against human KB cells after 44 hrs by SRB assay. For orientation: The SRB assay estimates cell density from bound dye.
Another assay relates to MKN-28. The assay can be described thus: Cytotoxicity against human MKN28 cells after 44 hrs by SRB assay. The following applies: MKN-28, 44 h.
In another assay the test system is HeLa. The assay can be described thus: Cytotoxicity against human HeLa cells after 44 hrs by SRB assay.
The next assay deals with MCF7. The experiment in a line: Cytotoxicity against human MCF7 cells after 44 hrs by SRB assay. The conditions noted are these: MCF7, 44 h.

The record followed here is ChEMBL document CHEMBL2429712, “Synthesis and cytotoxicity of (3)-3-acetyloxy-5(6)-androsten-7-one oxime and 3,5(6)-androstadien-7-one oxime” (Med Chem Res, 2013).

What is called IC50 is the concentration that gives 50% inhibition. Consider `CC(=O)O[C@H]1CC[C@@]2(C)C(=CC(=O)[C@H]3[C@@H]4CCC[C@@]4(C)CC[C@@H]32)C1`, for which the IC50 in the assay with KB came out at 62 µM; with MKN-28, 48.5 µM; in the assay on HeLa, 34 µM; in the assay with MCF7 it was 39.5 µM.
The corresponding values for `CC(=O)O[C@H]1CC[C@@]2(C)C(=C/C(=N\O)[C@H]3[C@@H]4CCC[C@@]4(C)CC[C@@H]32)C1` are 26 µM, 18.1 µM, 12.8 µM and 10.2 µM.
The corresponding values for `C[C@@]12CCC[C@H]1[C@@H]1C(=O)C=C3C=CCC[C@]3(C)[C@H]1CC2` are above 80 µM, 64.3 µM, 62.4 µM and 52.2 µM.
The corresponding values for `C[C@@]12CCC[C@H]1[C@@H]1/C(=N\O)C=C3C=CCC[C@]3(C)[C@H]1CC2` are 28.5 µM, 36.1 µM, 22.2 µM and 19.8 µM.
Turning to `COc1cccc2c1C(=O)c1c(O)c3c(c(O)c1C2=O)C[C@@](O)(C(=O)CO)C[C@@H]3O[C@H]1C[C@H](N)[C@H](O)[C@H](C)O1` [DOXORUBICIN], the IC50 with KB came to 0.028 µM; with MKN-28, 0.22 µM.
